# Measured values: article PMC2673211, “Nitric oxide activates ATP-sensitive potassium channels in mammalian sensory neurons: action by direct S-nitrosylation” (Molecular Pain, 2009)
# Biological target: T1, wild-type SUR1/Kir6.2 channels (Rattus norvegicus, UniProt P70673+Q09429)
# T1 construct: A full-length Kir cDNA and a full-length SUR cDNA were subcloned into the mammalian expression vector; expressed in transfected cells; host or cells: COS7 cells (KATP channel-deficient), pcDNA3.1(-) vectors, GFP cDNA co-transfected as a separate reporter
# T1 sequence (Q09429 whole entry): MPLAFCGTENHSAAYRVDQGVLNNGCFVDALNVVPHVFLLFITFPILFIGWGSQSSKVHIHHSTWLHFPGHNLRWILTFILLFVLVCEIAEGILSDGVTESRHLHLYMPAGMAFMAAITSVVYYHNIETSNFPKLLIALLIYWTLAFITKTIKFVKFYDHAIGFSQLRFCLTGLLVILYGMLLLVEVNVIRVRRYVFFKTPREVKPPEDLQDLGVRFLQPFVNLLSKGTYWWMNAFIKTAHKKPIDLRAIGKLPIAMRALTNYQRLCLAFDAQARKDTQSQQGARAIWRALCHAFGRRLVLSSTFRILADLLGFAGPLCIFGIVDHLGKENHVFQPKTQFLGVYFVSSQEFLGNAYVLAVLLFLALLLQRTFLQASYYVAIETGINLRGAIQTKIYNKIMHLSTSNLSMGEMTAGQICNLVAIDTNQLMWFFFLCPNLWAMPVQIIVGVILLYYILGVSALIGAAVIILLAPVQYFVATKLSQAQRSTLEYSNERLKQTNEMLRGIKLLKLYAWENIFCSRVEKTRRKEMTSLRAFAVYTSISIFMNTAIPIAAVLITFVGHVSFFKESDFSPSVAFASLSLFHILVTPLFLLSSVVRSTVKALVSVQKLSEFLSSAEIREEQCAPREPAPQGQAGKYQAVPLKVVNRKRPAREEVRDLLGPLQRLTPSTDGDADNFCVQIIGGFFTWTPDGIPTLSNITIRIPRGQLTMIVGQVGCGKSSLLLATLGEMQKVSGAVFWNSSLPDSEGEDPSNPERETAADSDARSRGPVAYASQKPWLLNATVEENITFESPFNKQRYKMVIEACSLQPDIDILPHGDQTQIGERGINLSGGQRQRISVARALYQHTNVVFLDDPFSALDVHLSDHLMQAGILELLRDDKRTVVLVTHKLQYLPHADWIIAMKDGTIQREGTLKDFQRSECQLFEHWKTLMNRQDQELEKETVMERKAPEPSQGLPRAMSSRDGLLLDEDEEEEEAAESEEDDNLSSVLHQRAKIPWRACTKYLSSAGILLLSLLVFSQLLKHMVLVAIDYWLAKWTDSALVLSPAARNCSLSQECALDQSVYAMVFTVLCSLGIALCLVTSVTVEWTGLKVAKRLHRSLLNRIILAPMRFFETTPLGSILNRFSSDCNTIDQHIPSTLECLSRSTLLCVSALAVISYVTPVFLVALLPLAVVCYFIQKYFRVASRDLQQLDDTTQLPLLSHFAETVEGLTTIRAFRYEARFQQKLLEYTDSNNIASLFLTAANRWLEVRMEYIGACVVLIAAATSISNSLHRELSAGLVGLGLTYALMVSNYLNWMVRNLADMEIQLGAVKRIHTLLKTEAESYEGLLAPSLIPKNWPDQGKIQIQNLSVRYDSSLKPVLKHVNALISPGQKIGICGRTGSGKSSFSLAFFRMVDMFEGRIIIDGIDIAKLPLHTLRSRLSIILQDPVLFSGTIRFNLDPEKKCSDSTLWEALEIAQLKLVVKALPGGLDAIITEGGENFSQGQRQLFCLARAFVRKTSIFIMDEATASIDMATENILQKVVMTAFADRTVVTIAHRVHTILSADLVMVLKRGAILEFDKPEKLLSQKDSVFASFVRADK
# T1 sequence (P70673 whole entry): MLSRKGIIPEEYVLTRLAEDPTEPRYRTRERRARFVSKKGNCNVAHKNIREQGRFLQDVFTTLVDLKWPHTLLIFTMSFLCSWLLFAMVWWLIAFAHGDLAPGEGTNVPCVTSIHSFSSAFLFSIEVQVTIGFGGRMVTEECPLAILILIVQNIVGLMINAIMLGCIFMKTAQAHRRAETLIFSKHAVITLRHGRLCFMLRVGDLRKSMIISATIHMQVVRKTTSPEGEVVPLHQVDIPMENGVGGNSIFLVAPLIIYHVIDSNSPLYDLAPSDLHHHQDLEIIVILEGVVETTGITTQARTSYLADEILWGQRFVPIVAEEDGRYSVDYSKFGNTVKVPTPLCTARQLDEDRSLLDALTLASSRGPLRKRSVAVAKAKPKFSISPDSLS
# Assay: Inside-out patch recording of recombinant wild-type channels expressed in COS7 cells
# Assay type: biochemical
# Details: SNAP 1 mM in the presence of 1 mM [ATP]i; n = 7
# Protocol: KATP channel-deficient COS7 cells were plated at a density of 3 × 10^5/dish (35 mm in diameter) and cultured in Dulbecco's modified Eagle's medium supplemented with 10% fetal calf serum. Rat Kir6.2 (GenBank X97041) and rat SUR1 (GenBank X97279) cDNAs were used for expression study. A truncated form of Kir6.2 lacking the last 36 amino acids at the C-terminus was obtained by polymerase chain reaction amplification. Polymerase chain reaction products were cloned into the pCR3.1 vector by using the TA cloning system (Invitrogen Corp., Carlsbad, CA, USA) and then cloned into the pcDNA3.1 (-) vector (Invitrogen Corp.) for mammalian expression. Point mutation of cysteine at position 717 (C717), C806, C1378, C1446, and C1491 within SUR1 to serine (C717S, C806S, C1378S, C1446S, and C1491S) was performed by using the Site-Directed Mutagenesis system (Invitrogen Corp.). All cDNA products were sequenced by using the BigDye terminator cycle sequencing kit and an ABI PRISM 377 DNA sequencer (Applied Biosystems, Foster City, CA) to confirm the sequence. A full-length Kir cDNA and a full-length SUR cDNA were subcloned into the mammalian expression vector pcDNA3.1 (-). For electrophysiological recordings, either wild-type or mutated pcDNA3.1 (-) Kir6.2 alone (1 μg), or pcDNA3.1 (-) Kir6.2 (1 μg) plus pcDNA3.1 (-) SUR1 (3 μg) were transfected into COS7 cells with green fluorescent protein cDNA as a reporter gene by using lipofectamine and Opti-MEN 1 reagents (Life Technologies Inc., Rockville, MD) according to the manufacturer's instructions. After transfection, cells were cultured at 37°C with 95% air and 5% CO2 for 48–72 h before being subjected to electrophysiological recordings.
# We recorded current passing through single channels in inside-out or cell-attached patch configurations. In cell-attached patches, both bath and pipette (extracellular) solutions were composed of the following: 140 mM KCl, 10 mM HEPES, 5.5 mM dextrose, and 1 mM EGTA. In inside-out patches, the bath (intracellular) solution contained 140 mM KCl, 1.2 mM MgCl2, 10 mM HEPES, 1.5 mM EGTA and 5.5 mM dextrose. The pipette (extracellular) solution was of the same composition as that used in cell-attached recordings. The pH of all solutions was adjusted to 7.4 with KOH. Osmolality was adjusted approximately to 300 mOsm/l by adding sucrose if necessary. We pulled patch micropipettes from borosilicate glass capillaries using a Flaming/Brown micropipette puller, model P-97 (Sutter, San Rafael, CA) and flame polished them with a microforge polisher (Narishige, Tokyo, Japan) prior to use. Their resistance ranged between 3 and 6 MΩ when filled with the internal solution, and placed into the recording solutions.
# We recorded single channel currents at room temperature (20–25°C) using an Axon CNS Multiclamp 700B amplifier, digitized them using an analog-to-digital converter (Axon CNS DigiData 1440A; Axon Instruments, Foster, CA), and stored them into a PC. Sampling frequency of single-channel data was 5 KHz with a low-pass filter (1 KHz). We used pClamp version 10.2 software (Axon Instruments) for data acquisition and analysis. […] Channel open probability (Po) was determined from the ratios of the area under the peaks in the amplitude histograms fitted by a Gaussian distribution. We calculated channel activity as NPo (where N is the number of observed channels in the patch) from data samples of either 30 s (in inside-out recordings), or 60 s (in cell-attached recordings), in the steady state. […]
substance,measurement,value
S-nitroso-N-acetylpenicillamine [SNAP],effect on recombinant channel activity,significantly activated
